# Measured values reported in patent US20260284208A1, “SYSTEM” (Oxford University Innovation Limited, priority 2023, published 2026).
# Experiments:
# [1] = molecular target: IKZF3 130-189aa Q147A N149E Q150V S154K (AEVK) ZF-GFP (Homo sapiens, UniProt Q96SW2+Q9UKT9, N149E/Q147A/Q150V/S154K); assay: GFP degradation flow cytometry assay, AEVK mutant ZF-eGFP; assay type: cell-based
# Description: (§1) The following method was used to generate lentiviral vectors for plasmids tested in library hit confirmation experiments: WT, QPIS, ANQS, APIS, HEIP, FEVP, WEIK, FDIP, AEVK, WNQS, WEIS, WNIQ, and WDIA. HEK293T cells were seeded into 6 well TC-treated cell culture dishes (Falcon) at 7×10^5 cells per well and incubated overnight at 37° C. and 5% CO2. […] In a separate tube 2 μL of PEIPro (Polyplus) was added to 100 μL of OptiMEM. The solution containing PEIPro and DNA was mixed and incubated at room temperature for 15 minutes to create the transfection mixture. The transfection mixture was added to cells and incubated for 5-6 hours at 37° C. and 5% CO2. After 2 days, the supernatant was harvested and fresh media was added to cells. 24 hours later, the supernatant was harvested and combined with the first supernatant harvested. Supernatant was centrifuged at 2000×g room temperature for 5 minutes, then the supernatant was filtered through a 0.45 μm cellulose acetate syringe filter and frozen at −80° C. […]
# (§2) Jurkat cells were added to 96 well U-bottom assay plates (Falcon) at 1×10^5 cells per well and treated with compounds for 18 hours at 37° C. and 5% CO2. […] Data was analysed using FlowJo 10.8.1 (BD).
# (§3) Having assessed the broad trends from this library screen, the sequences with the highest log FC values for A63 and B08 were selected and transduced into separate Jurkat cell lines. […]
# [2] = molecular target: IKZF3 130-189aa Q147W N149E Q150I (WEIS) ZF-GFP (Homo sapiens, UniProt Q96SW2+Q9UKT9, N149E/Q147W/Q150I); assay: GFP degradation flow cytometry assay, WEIS mutant ZF-eGFP; assay type: cell-based
# Description: as §1, §2, §3
# [3] = from pDC50 values, 12 concentrations 5 nM-10 μM
# Chain of IKZF3 130-189aa Q147W N149E Q150I (WEIS) ZF-GFP (Q9UKT9 130-189 Q147W/N149E/Q150I): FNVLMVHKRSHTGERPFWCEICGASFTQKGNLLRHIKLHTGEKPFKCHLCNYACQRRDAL
# Chain of IKZF3 130-189aa Q147W N149E Q150I (WEIS) ZF-GFP (Q96SW2 whole entry): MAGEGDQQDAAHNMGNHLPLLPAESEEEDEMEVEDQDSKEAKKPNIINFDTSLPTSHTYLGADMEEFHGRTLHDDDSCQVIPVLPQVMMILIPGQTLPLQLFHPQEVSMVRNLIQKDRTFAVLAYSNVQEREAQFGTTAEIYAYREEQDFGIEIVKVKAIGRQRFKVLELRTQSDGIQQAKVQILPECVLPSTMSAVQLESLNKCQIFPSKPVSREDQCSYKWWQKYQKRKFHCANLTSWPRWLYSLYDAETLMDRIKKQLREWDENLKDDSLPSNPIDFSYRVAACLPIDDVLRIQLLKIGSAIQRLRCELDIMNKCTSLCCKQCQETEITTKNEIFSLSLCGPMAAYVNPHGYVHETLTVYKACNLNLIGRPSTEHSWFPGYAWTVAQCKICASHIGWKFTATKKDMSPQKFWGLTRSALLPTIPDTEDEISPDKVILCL
# Chain of IKZF3 130-189aa Q147A N149E Q150V S154K (AEVK) ZF-GFP (Q9UKT9 130-189 Q147A/N149E/Q150V/S154K): as the sequence (Q9UKT9 130-189 Q147W/N149E/Q150I) above, with W18A, I21V, S25K counted along it
# Chain of IKZF3 130-189aa Q147A N149E Q150V S154K (AEVK) ZF-GFP (Q96SW2 whole entry): as the sequence (Q96SW2 whole entry) above
Structure (SMILES),"percent degradation of ZF-GFP reporter at up to 10 µM ([1]; 18 h, 10 μM, Jurkat, flow cytometry concentration curve, read-out: degradation of the top mutant ZF-GFP (AEVK))","selectivity compared to the WT ZF (AEVK) [1, 3]","inhibition at up to 10 µM ([2]; 18 h, 10 μM, Jurkat, flow cytometry concentration curve, read-out: degradation of the top mutant ZF-GFP (WEIS))","selectivity compared to the WT ZF (WEIS) [2, 3]"
"CC(C)(C)c1ccc2c(c1)C(=O)N(C1CCC(=O)NC1=O)C2=O (stereo not shown) [A63, 5-(tert-butyl)-2-(2,6-dioxopiperidin-3-yl)isoindoline-1,3-dione]",~100%,around 30 ×,,
"CN1CCN(c2ccc3c(c2)C(=O)N(C2CCC(=O)NC2=O)C3=O)CC1 (stereo not shown) [B08, 2-(2,6-dioxopiperidin-3-yl)-5-(4-methylpiperazin-1-yl)isoindoline-1,3-dione]",,,~100%,around 30 ×
